Results from patent US20230310393A1 (Tianjin Creatron Biotechnology Co., Ltd., priority 2020, published 2023).
In brackets after ≈: the same amount, converted by molar mass. Like-named read-outs stand apart in the source and are kept apart here.

What was measured:
[1] = Solubility of sorafenib in different organic solvents; format: physicochemical; settings: for solubility at 30 min / solubility at 24 h: organic solvent, 37 °C, organic solvent or mixture, thermodynamic from solid
[2] = Stability of sorafenib in different organic solvents (related substances by HPLC); format: physicochemical
[3] = Solubility test of solid dispersions (pH 1.0 hydrochloric acid, pH 6.8 phosphate buffer, FaSSGF, FaSSIF); format: physicochemical; settings: main drug:carrier 1:3; for Solubility: pH 1.0 hydrochloric acid solution, 37° C., listed as SLFN
Protocol: An appropriate amount of solid dispersion (SD) was added to a pH 1.0 hydrochloric acid solution and a pH 6.8 phosphate buffer solution, while keeping the SD in excess, and shaken at 37° C. in a shaker at 300 rpm.

[4] = Stability of solid dispersions at high temperature of 60° C. (related substances by HPLC); format: physicochemical
Protocol: The SD prepared above was sealed in an aluminum foil bag, placed in a high temperature of 60° C. for investigation for 10 days and 30 days, and related substances were detected by HPLC method.

[5] = healthy volunteer, oral 100 mg 14C radiolabeled sorafenib; cited from earlier work
[6] = renal cell carcinoma patients; cited from earlier work
[7] = cited from earlier work
[8] = acetone-ethanol 1:2, standing 30 min
[9] = acetone-ethanol 1:2, standing 24 h
[10] = dichloromethane-acetone 3:1, standing 30 min
[11] = dichloromethane-acetone 3:1, standing 24 h
[12] = methanol-dichloromethane 1:2, standing 30 min
[13] = methanol-dichloromethane 1:2, standing 24 h
[14] = methanol-dichloromethane 1:3, standing 30 min
[15] = methanol-dichloromethane 1:3, standing 24 h
[16] = methanol-dichloromethane 1:4, standing 30 min
[17] = methanol-dichloromethane 1:4, standing 24 h

- Solubility ([1]; acetone-ethanol 1:2, 30 min, 37° C.): 18.51 mg/mL (≈ 39.8 mM)
- Solubility ([1]; acetone-ethanol 1:2, 24 h, 37° C.): 18.48 mg/mL (≈ 39.8 mM)
- Solubility (visual inspection) ([1]; acetone-ethanol 1:3 and 1:5, 30 min): Less API dissolved by visual
- Solubility (visual inspection) ([1]; dichloromethane-acetone 1:1 and 2:1, 30 min): Less API dissolved by visual
- Solubility ([1]; methanol-dichloromethane 1:1, 30 min, 37° C.): 14.28 mg/mL (≈ 30.7 mM)
- solubility at 30 min ([1]; dichloromethane-acetone 3:1, 30 min, 37° C.): 3.6 mg/mL (≈ 7.74 mM)
- solubility at 24 h ([1]; dichloromethane-acetone 3:1, 24 h, 37° C.): 4.04 mg/mL (≈ 8.69 mM)
- solubility at 30 min ([1]; isopropanol, 30 min): 2.91 mg/mL (≈ 6.26 mM)
- solubility at 24 h ([1]; isopropanol, 24 h): 2.81 mg/mL (≈ 6.05 mM)
- solubility at 30 min ([1]; methanol-dichloromethane 1:0.5 (v/v), 30 min, 37° C.): 8.34 mg/mL (≈ 17.9 mM)
- solubility at 24 h ([1]; methanol-dichloromethane 1:0.5 (v/v), 24 h, 37° C.): 19.2 mg/mL (≈ 41.2 mM)
- solubility at 24 h ([1]; methanol-dichloromethane 1:1, 24 h, 37° C.): 24.2 mg/mL (≈ 52.1 mM)
- solubility at 30 min ([1]; methanol-dichloromethane 1:2, 30 min, 37° C.): 20.9 mg/mL (≈ 45 mM)
- solubility at 24 h ([1]; methanol-dichloromethane 1:2, 24 h, 37° C.): 36.2 mg/mL (≈ 77.8 mM)
- solubility at 30 min ([1]; methanol-dichloromethane 1:3, 30 min, 37° C.): 36.4 mg/mL (≈ 78.2 mM)
- solubility at 24 h ([1]; methanol-dichloromethane 1:3, 24 h, 37° C.): 36.4 mg/mL (≈ 78.4 mM)
- solubility at 30 min ([1]; methanol-dichloromethane 1:4, 30 min, 37° C.): 31.3 mg/mL (≈ 67.4 mM)
- solubility at 24 h ([1]; methanol-dichloromethane 1:4, 24 h, 37° C.): 36.3 mg/mL (≈ 78.1 mM)
- Related substances RRT 0.08 ([2]; API, no solvent): 0.008%
- Related substances RRT 0.30 ([2]; API, no solvent): 0.029%
- Related substances RRT 0.40 ([2]; API, no solvent): 0.006%
- Related substances RRT 0.55 ([2]; API, no solvent): 0.028%
- Related substances RRT 0.92 ([2]; API, no solvent): 0.054%
- Related substances RRT 1.00 ([2]; API, no solvent): 99.864%
- Related substances RRT 0.05 [2, 8]: 4.314%
- Related substances RRT 0.08 [2, 8]: 0.011%
- Related substances RRT 0.30 [2, 8]: 0.029%
- Related substances RRT 0.40 [2, 8]: 0.008%
- Related substances RRT 0.55 [2, 8]: 0.025%
- Related substances RRT 0.92 [2, 8]: 0.047%
- Related substances RRT 1.00 [2, 8]: 95.562%
- Related substances RRT 0.05 [2, 9]: 3.946%
- Related substances RRT 0.08 [2, 9]: 0.010%
- Related substances RRT 0.30 [2, 9]: 0.033%
- Related substances RRT 0.40 [2, 9]: 0.007%
- Related substances RRT 0.55 [2, 9]: 0.020%
- Related substances RRT 0.92 [2, 9]: 0.035%
- Related substances RRT 1.00 [2, 9]: 95.893%
- Related substances RRT 0.05 [2, 10]: 12.979%
- Related substances RRT 0.08 [2, 10]: 2.491%
- Related substances RRT 0.30 [2, 10]: 0.020%
- Related substances RRT 0.35 [2, 10]: 0.282%
- Related substances RRT 0.92 [2, 10]: 0.039%
- Related substances RRT 1.00 [2, 10]: 84.196%
- Related substances RRT 0.05 [2, 11]: 14.191%
- Related substances RRT 1.00 [2, 11]: 85.157%
- Related substances RRT 0.03 ([2]; isopropanol, standing 30 min): 0.161%
- Related substances RRT 1.00 ([2]; isopropanol, standing 30 min): 99.839%
- Related substances RRT 1.00 ([2]; isopropanol, standing 24 h): 99.365%
- Related substances RRT 0.08 [2, 12]: 0.011%
- Related substances RRT 0.30 [2, 12]: 0.030%
- Related substances RRT 0.40 [2, 12]: 0.008%
- Related substances RRT 0.55 [2, 12]: 0.031%
- Related substances RRT 0.92 [2, 12]: 0.037%
- Related substances RRT 1.00 [2, 12]: 99.870%
- Related substances RRT 0.08 [2, 13]: 0.013%
- Related substances RRT 0.30 [2, 13]: 0.035%
- Related substances RRT 0.40 [2, 13]: 0.009%
- Related substances RRT 0.55 [2, 13]: 0.028%
- Related substances RRT 0.92 [2, 13]: 0.049%
- Related substances RRT 1.00 [2, 13]: 99.853%
- Related substances RRT 0.08 [2, 14]: 0.015%
- Related substances RRT 0.30 [2, 14]: 0.029%
- Related substances RRT 0.40 [2, 14]: 0.006%
- Related substances RRT 0.55 [2, 14]: 0.026%
- Related substances RRT 0.92 [2, 14]: 0.050%
- Related substances RRT 1.00 [2, 14]: 99.861%
- Related substances RRT 0.08 [2, 15]: 0.012%
- Related substances RRT 0.30 [2, 15]: 0.035%
- Related substances RRT 0.40 [2, 15]: 0.009%
- Related substances RRT 0.55 [2, 15]: 0.025%
- Related substances RRT 0.92 [2, 15]: 0.037%
- Related substances RRT 1.00 [2, 15]: 99.872%
- Related substances RRT 0.08 [2, 16]: 0.013%
- Related substances RRT 0.30 [2, 16]: 0.028%
- Related substances RRT 0.40 [2, 16]: 0.007%
- Related substances RRT 0.55 [2, 16]: 0.024%
- Related substances RRT 0.92 [2, 16]: 0.034%
- Related substances RRT 1.00 [2, 16]: 99.884%
- Related substances RRT 0.08 [2, 17]: 0.013%
- Related substances RRT 0.30 [2, 17]: 0.028%
- Related substances RRT 0.40 [2, 17]: 0.008%
- Related substances RRT 0.55 [2, 17]: 0.032%
- Related substances RRT 0.92 [2, 17]: 0.045%
- Related substances RRT 1.00 [2, 17]: 99.862%
- Solubility ([3]; 0.5 h): <0.09 µg/mL
- Solubility ([3]; 2 h): <0.09 µg/mL
- Solubility ([3]; 4 h): <0.09 µg/mL
- solubility at 0.5 h ([3]; phosphate buffer, 37 °C, pH 6.8, aqueous buffer, thermodynamic from solid, pH 6.8 phosphate buffer solution, 0.5 h): < 0.09 µg/mL
- solubility at 2 h ([3]; phosphate buffer, 37 °C, pH 6.8, aqueous buffer, thermodynamic from solid, pH 6.8 phosphate buffer solution, 2 h): < 0.09 µg/mL
- solubility at 4 h ([3]; phosphate buffer, 37 °C, pH 6.8, aqueous buffer, thermodynamic from solid, pH 6.8 phosphate buffer solution, 4 h): < 0.09 µg/mL
- Related substances: CTF-aniline ([4]; 0 day): Not detected
- Related substances: Maximum single impurity ([4]; 0 day): 0.03%
- Related substances: Total impurity ([4]; 0 day): 0.09%
- Related substances: CTF-aniline ([4]; 10 days): Not detected
- Related substances: Maximum single impurity ([4]; 10 days): 0.04%
- Related substances: Total impurity ([4]; 10 days): 0.10%
- Related substances: CTF-aniline ([4]; 30 days): Not detected
- Related substances: Maximum single impurity ([4]; 30 days): 0.05%
- Related substances: Total impurity ([4]; 30 days): 0.10%
Compound: CNC(=O)c1cc(Oc2ccc(NC(=O)Nc3ccc(Cl)c(C(F)(F)F)c3)cc2)ccn1 [sorafenib, 4-{4-[3-(4-chloro-3-trifluoromethyl-phenyl)acylurea]-phenoxy}-pyridine-2-carboxylic acid methylamine]
- change in related substances ([2]; methanol-dichloromethane (1:3), 30 min and 24 h): no significant change in related substances
- administered dose excreted through feces [5]: 77%
- prototype drug excreted through feces [5]: above 51%
- blood concentration of patients with serious adverse reactions [6]: more than 10,000 ng/ml
- incidence of diarrhea [6]: 76.5%
- incidence of fatigue [6]: 55.32%
- incidence of hand-foot syndrome [6]: 68.99%
- Solubility ([7]; pH1): 0.0034 mg/mL (≈ 0.00731 mM)
- Solubility ([7]; pH4.5): 0.00013 mg/mL (≈ 0.00028 mM)
